Data on ten molecules can be found in patent US12240844B2 (Voronoi, Inc., priority 2019, dated 2025).

Molecules are shown by their SMILES. Where only a bound is given, the exact number is not on record here.

Type in all cases: biochemical
The target of one assay is LRRK2 (G2019S) (Homo sapiens, UniProt Q5S007, G2019S). In words: LRRK2 G2019S enzyme inhibition, ADP-Glo kinase assay. On the set-up: purchased SignalChem L10-12GG. On the procedure:
(§1) In order to evaluate the inhibitory activity of the compounds according to the present invention on LRRK2, LRRK2 (G2019S), DYRK1, CLK1 and TTK kinases, the following experiment was performed.
Example compounds were reacted with the purified human LRRK2 G2019S (L10-12GG, SignalChem) enzyme to evaluate the enzyme inhibitory ability as follows. The reaction buffer was used as the composition of 40 mM Tris-HCl pH7.4, 20 mM MgCl2, 0.5 mg/ml BSA and 50 μM DTT, and the reaction of all test materials was performed on the reaction buffer. The compound was diluted with 10 mM DMSO stock in 12 steps by a serial dilution method, and the enzyme activity was measured at the final compound concentrations of 50, 10, 2, 0.4, 0.08, 0.016, 0.0032, 0.00064, 0.000128, 0.0000256, 0.00000512 and 0.000001024 μM. In the test, the human LRRK2 G2019S (16 ng) enzyme was reacted with the purified ATP (25 μM) and an enzyme substrate (0.2 μg) at 25° C. for 2 hours, and then the enzyme activity was identified using the in vitro ADP-Glo™ kinase assay (promega). The enzyme activity reaction liquid, an ADP-Glo reaction liquid and an enzyme potency detection solution were reacted in a ratio of 2:2:1, and the degree of inhibition of enzyme activity was measured by Luminescence. The degree of inhibition of enzyme activity according to the treatment concentrations of the respective compounds was calculated based on the fluorescence of the enzyme activity of a solvent control group that was not treated with the compound, where the concentration of each compound to inhibit enzyme activity inhibition by 50% was determined as an IC50 (nM) value and obtained using Prism (Version 5.01, GraphPad) software.
(§2) In the table below, the following designations were used for the evaluation of enzyme inhibitory ability.
(In general: ADP-Glo turns the ADP formed in a reaction into a luminescent signal.)

In another assay the target is T1, human GST-CLK1 (129-end) (Homo sapiens, UniProt P49759).
T1 construct: purified human GST-CLK1 (129-end, Signalchem) enzyme; GST; purchased Signalchem
In words: GST-CLK1 enzyme inhibition, ADP-Glo kinase assay. The settings on record: ATP 10 uM. On the procedure: as §1
(§3) Example compounds were reacted with the purified human GST-CLK1 (129-end, Signalchem) enzyme to evaluate the enzyme inhibitory ability as follows. As the reaction buffer, the composition of 40 mM Tris-HCl pH 7.4, 20 mM MgCl2, 0.5 mg/mL BSA, and 50 uM DTT was used, and the reaction of all test materials was performed on the reaction buffer. During the test, the human GST-CLK1 (129-end, 3 ng) enzyme, the purified ATP (10 uM), and a specific substrate solution were reacted at 25° C. for 1 hour, and then the enzyme activity was identified using the in vitro ADP-Glo™ kinase assay (promega). Luminescence was measured by reacting the enzyme activity reaction solution, an ADP-Glo reaction solution and the enzyme potency detection solution in a ratio of 2:2:1. The degree of inhibition of enzyme activity according to the treatment concentrations of the respective compounds was calculated based on the fluorescence of the enzyme activity of a solvent control group that was not treated with the compound, where the concentration of each compound to inhibit enzyme activity inhibition by 50% was determined as an IC50 (nM) value. The IC50 of each compound was determined in triplicate data sets and obtained using Prism (version 7.01, GraphPad) software.
as §2

The target in assay [1] is T2, human GST-DYRK1A (full length) (Homo sapiens, UniProt Q13627).
T2 construct: purified human GST-DYRK1A (full length, Thermo scientifics) enzyme; GST; purchased Thermo scientifics
Put plainly: GST-DYRK1A enzyme inhibition, ADP-Glo kinase assay. Particulars: read-out: DYRK1 IC50. On the procedure: as §1
as §3, with “GST-DYRK1A (full length, Thermo scientifics)” for “GST-CLK1 (129-end, Signalchem)”, “GST-DYRK1A (full length, 10” for “GST-CLK1 (129-end, 3”
as §2

T1 sequence (P49759 129-484 limits assumed): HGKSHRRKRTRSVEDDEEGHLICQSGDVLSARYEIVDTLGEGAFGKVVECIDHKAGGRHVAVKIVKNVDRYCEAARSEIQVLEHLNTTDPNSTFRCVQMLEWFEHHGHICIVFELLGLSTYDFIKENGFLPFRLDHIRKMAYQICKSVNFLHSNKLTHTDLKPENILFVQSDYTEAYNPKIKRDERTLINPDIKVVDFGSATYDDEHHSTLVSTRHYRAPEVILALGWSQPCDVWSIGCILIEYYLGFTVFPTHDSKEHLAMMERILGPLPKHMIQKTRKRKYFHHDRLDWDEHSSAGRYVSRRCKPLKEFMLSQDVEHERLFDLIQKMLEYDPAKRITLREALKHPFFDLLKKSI
Sequence of LRRK2 (G2019S) (Q5S007 970-2527 G2019S limits assumed): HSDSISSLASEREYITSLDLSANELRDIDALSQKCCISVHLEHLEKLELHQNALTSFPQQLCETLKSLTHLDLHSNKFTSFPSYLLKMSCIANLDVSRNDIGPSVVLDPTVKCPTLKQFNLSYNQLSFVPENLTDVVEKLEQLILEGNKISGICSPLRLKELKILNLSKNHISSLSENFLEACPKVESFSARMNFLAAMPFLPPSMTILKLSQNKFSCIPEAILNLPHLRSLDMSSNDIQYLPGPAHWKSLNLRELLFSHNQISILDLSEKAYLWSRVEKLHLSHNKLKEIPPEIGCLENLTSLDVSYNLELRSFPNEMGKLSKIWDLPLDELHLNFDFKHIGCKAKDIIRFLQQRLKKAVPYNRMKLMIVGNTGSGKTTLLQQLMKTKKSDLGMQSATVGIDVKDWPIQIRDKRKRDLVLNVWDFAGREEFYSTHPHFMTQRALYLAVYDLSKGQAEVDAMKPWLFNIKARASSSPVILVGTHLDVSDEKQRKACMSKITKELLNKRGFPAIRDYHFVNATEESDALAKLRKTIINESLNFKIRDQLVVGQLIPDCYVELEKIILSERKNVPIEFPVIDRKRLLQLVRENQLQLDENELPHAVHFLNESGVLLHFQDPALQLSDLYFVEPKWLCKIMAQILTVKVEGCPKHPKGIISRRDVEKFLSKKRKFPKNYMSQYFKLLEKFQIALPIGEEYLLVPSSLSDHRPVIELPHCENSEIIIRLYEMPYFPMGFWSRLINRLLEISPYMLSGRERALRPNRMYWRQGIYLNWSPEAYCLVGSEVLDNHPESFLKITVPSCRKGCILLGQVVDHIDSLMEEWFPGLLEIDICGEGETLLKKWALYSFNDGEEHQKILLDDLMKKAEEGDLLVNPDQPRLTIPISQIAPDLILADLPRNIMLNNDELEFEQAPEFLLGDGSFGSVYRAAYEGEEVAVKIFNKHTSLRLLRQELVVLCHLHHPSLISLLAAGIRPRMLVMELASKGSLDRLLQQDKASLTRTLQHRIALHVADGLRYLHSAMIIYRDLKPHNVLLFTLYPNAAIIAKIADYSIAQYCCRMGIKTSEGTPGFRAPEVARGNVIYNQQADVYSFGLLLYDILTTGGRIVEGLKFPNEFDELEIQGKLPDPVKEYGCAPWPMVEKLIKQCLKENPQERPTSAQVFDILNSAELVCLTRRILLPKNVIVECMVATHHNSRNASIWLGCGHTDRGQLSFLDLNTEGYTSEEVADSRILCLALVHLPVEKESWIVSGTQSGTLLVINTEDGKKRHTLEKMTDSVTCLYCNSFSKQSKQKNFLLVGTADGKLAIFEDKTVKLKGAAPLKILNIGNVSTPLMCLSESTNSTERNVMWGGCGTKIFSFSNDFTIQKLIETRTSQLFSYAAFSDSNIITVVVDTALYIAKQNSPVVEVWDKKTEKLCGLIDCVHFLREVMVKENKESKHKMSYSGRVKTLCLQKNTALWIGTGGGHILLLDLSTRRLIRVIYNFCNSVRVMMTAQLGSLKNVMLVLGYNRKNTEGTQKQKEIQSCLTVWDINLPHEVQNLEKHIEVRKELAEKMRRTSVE

Consider `CCCNc1cc(Nc2ccc(S(=O)(=O)N3CCC(N4CCOCC4)CC3)cc2OC)nc2[nH]ccc12` [Example 20, N^6-(2-methoxy-4-((4-morpholinopiperidin-1-yl)sulfonyl)phenyl)-N^4-propyl-1H-pyrrolo[2,3-b]pyridine-4,6-diamine], for which the IC50 – broadly, the concentration that inhibits the measured activity by half – against LRRK2 (G2019S) was under 100 nM; against human GST-CLK1 (129-end) it was 301 to 1000 nM; in assay [1], 301 to 1000 nM.
Turning to `COc1cc(S(=O)(=O)N2CCC(N3CCOCC3)CC2)ccc1Nc1cc(NCC(C)C)c2cc[nH]c2n1` [Example 21, N^4-isobutyl-N^6-(2-methoxy-4-((4-morpholinopiperidin-1-yl)sulfonyl)phenyl)-1H-pyrrolo[2,3-b]pyridine-4,6-diamine], the results for the IC50 (against LRRK2 (G2019S); at human GST-CLK1 (129-end); in assay [1]) were under 100 nM, 301 to 1000 nM and 301 to 1000 nM, respectively.
With `COc1cc(S(=O)(=O)N2CCC(N3CCOCC3)CC2)ccc1Nc1cc(NC2CC2)c2cc[nH]c2n1` [Example 22, N^4-cyclopropyl-N^6-(2-methoxy-4-((4-morpholinopiperidin-1-yl)sulfonyl)phenyl)-1H-pyrrolo[2,3-b]pyridine-4,6-diamine], the IC50 against LRRK2 (G2019S) was under 100 nM; on human GST-CLK1 (129-end), 301 to 1000 nM; in assay [1] it was 301 to 1000 nM.
For the molecule `COc1cc(S(=O)(=O)N2CCC(N3CCOCC3)CC2)ccc1Nc1cc(NC2CCCCC2)c2cc[nH]c2n1` [Example 23, N^4-cyclohexyl-N^6-(2-methoxy-4-((4-morpholinopiperidin-1-yl)sulfonyl)phenyl)-1H-pyrrolo[2,3-b]pyridine-4,6-diamine], the IC50 (at LRRK2 (G2019S); against human GST-CLK1 (129-end); in assay [1]) was 301 to 1000 nM each time.
Take `COc1cc(S(=O)(=O)N2CCC(N3CCOCC3)CC2)ccc1Nc1cc(NCCS(C)(=O)=O)c2cc[nH]c2n1` [Example 24, N^6-(2-methoxy-4-((4-morpholinopiperidin-1-yl)sulfonyl)phenyl)-N^4-(2-(methylsulfonyl)ethyl)-1H-pyrrolo[2,3-b]pyridine-4,6-diamine]: the IC50 against LRRK2 (G2019S) is under 100 nM; against human GST-CLK1 (129-end), 301 to 1000 nM; in assay [1], 301 to 1000 nM.
With `COc1cc(S(C)(=O)=O)ccc1Nc1cc(NC2CCCCC2)c2cc[nH]c2n1` [Example 30, N^4-cyclohexyl-N^6-(2-methoxy-4-(methylsulfonyl)phenyl)-1H-pyrrolo[2,3-b]pyridine-4,6-diamine], the IC50 (at LRRK2 (G2019S); on human GST-CLK1 (129-end); in assay [1]) was 301 to 1000 nM throughout.
Turning to `COc1cc(S(C)(=O)=O)ccc1Nc1cc(NCCS(C)(=O)=O)c2cc[nH]c2n1` [Example 31, N^6-(2-methoxy-4-(methylsulfonyl)phenyl)-N^4-(2-(methylsulfonyl)ethyl)-1H-pyrrolo[2,3-b]pyridine-4,6-diamine], the IC50 (on LRRK2 (G2019S); against human GST-CLK1 (129-end); in assay [1]) was 301 to 1000 nM each time.
Take `CNc1cc(Nc2ccc(C(=O)N3CCOCC3)c3c2OCCO3)nc2[nH]cc(Cl)c12` [Example 56, (8-((3-chloro-4-(methylamino)-1H-pyrrolo[2,3-b]pyridin-6-yl)amino)-2,3-dihydrobenzo[b] [1,4]dioxin-5-yl)(morpholino) methanone 2,2,2-trifluoroacetate]: the 50% inhibitory concentration (IC50) against LRRK2 (G2019S) was under 100 nM; against human GST-CLK1 (129-end), 301 to 1000 nM; in assay [1], 301 to 1000 nM.
Consider `CCNc1cc(Nc2ccc(C(=O)N3CCOCC3)c3c2OCCO3)nc2[nH]cc(Cl)c12` [Example 57, (8-((3-chloro-4-(ethylamino)-1H-pyrrolo[2,3-b]pyridin-6-yl)amino)-2,3-dihydrobenzo[b] [1,4]dioxin-5-yl)(morpholino) methanone], for which the IC50 was under 100 nM on LRRK2 (G2019S), 301 to 1000 nM on human GST-CLK1 (129-end) and 301 to 1000 nM in assay [1].
As for `CCCNc1cc(Nc2ccc(C(=O)N3CCOCC3)c3c2OCCO3)nc2[nH]cc(Cl)c12` [Example 58, (8-((3-chloro-4-(propylamino)-1H-pyrrolo[2,3-b]pyridin-6-yl)amino)-2,3-dihydrobenzo[b] [1,4]dioxin-5-yl)(morpholino) methanone], the values for the IC50 (on LRRK2 (G2019S); against human GST-CLK1 (129-end); in assay [1]) were under 100 nM, 301 to 1000 nM and 301 to 1000 nM, respectively.
